Data as given in PMC10086023, “The effect of barium and strontium on activity of glucoamylase QsGH97a from Qipengyuania seohaensis SW-135” (Scientific Reports, 2023).

Test system: T1, QsGH97a
T1 construct: pSMT3 His-SUMO fusion in E. coli BL21(DE3), tag cut by Ulp1; probable dimer; forward primer encodes MIRHIALFI; catalytic Glu378, Glu459, Glu483
Assay: p-nitrophenol release at […] nm, Michaelis-Menten fit
Format: biochemical, Qipengyuania seohaensis
Conditions: 20 mM Tris-HCl pH 8.0, 50 °C, no added metal ion

Km: 200 ± 20 µM
Compound: O=[N+]([O-])c1ccc(O[C@H]2O[C@H](CO)[C@@H](O)[C@H](O)[C@H]2O)cc1 [pNPαGlu, p-Nitrophenyl-α-D-glucopyranoside]
